For test [1], the system named is Vps35, Vps26, and Vps29 mRNAs. Kind of test: Real-time PCR of CRC genes in Neuro2a cells. Format: cell-based. The note with it: 10 μM, 48 h. The source says:
Lumbar spinal tracts dissected from saline-perfused mice or Neuro2A cells were lysed to extract total RNAs using the RNeasy Mini Kit (Qiagen) according to the manufacturer’s recommendations, including DNase (Promega) digestion. We synthetized the cDNA using ThermoScript RT-PCR System (Invitrogen) and Random Hexamer (Invitrogen), according to the manufacturer’s instructions. The LightCycler 480 System (Roche) and LightCycler 480 SYBR Green I Master Mix (Roche) were used for real-time PCR experiments. Normalization was obtained using the housekeeping gene Histone H3:
Compound 2a stabilizes VPS35 levels in Neuro2a cells
A cycloheximide (CHX) chase assay was performed to determine the degradation rate of VPS35 in Neuro2a cells (3x10^5 cells/well). Cells were treated with vehicle or 2a (10 µM) for 24 h, and then chased with CHX (10 µg/mL) for 2, 4 and 8h.
WBs for VPS35 and β-Actin levels. Quantifications of normalized VPS35 levels (means normalized ratios ± SEM versus the time 0) are shown inpanel b (vehicle: n=10 independent wells, 2a: n=8 independent wells obtained from 3 independent experiments; control vs. 2a at 8 hours: p=0.009). c, quantitative real time PCR for Vps35, Vps26 and Vps29 mRNA (Vps35: controls n=8 independent wells; 2a: n=9 independent wells; Vps26 and Vps29: n=9 independent wells/group); data were collected from 3 independent experiments. […]

Test [2] relates to SOD1^G93A-transfected Neuro2a cells. Kind of test: LDH-Glo cytotoxicity assay in SOD1G93A-transfected Neuro2a cells. Format: cell-based. The note with it: 10 µM. The source says:
Having observed a marked improvement of viability in SOD1^G93A-transfected Neuro2a cells with VPS35 gain of function, we investigated the effect of VPS35 loss of function. We transfected Neuro2a cells with RNAi plasmids encoding a siRNA duplex for VPS35, to knockdown VPS35 and disrupt the retromer assembly. […] By including Sh56 plasmids in the transfection mix, we worsened this phenotype (Fig. 3d). […] We next assayed cytotoxicity by measuring lactate dehydrogenase (LDH) release with a LDH-Glo™ cytotoxicity assay. Cells were treated with plasmids encoding SOD1^G93A and the Sh56-RNAi sequence with or without compound 2a, while supernatants were used to measure LDH contents. Overexpression of SOD1^G93A increased LDH release by Neuro2aA cells, when compared with control cells (Fig. 3e).
LDH cytotoxicity was run on 96-well plates using LDH-Glo™ Cytotoxicity Assay (Promega). Briefly, Neuro2a cells were transfected with plasmids encoding pCMV-LacZ; pcDNA3.1(+)SOD1G93A[77] with or without VPS35 short interfering plasmids (Sh56) or compound 2a (10 µM). […] In each experiment we calculated %cytotoxicity=Exp.LDHrelease−mediumbackground/MaxLDHreleasecontrol−mediumbackground , and we run parallel positive controls treating cells with 200 µM H2O2. […]

In another test the test system is GM130. In words: Golgi apparatus (GM130) in MNs of treated G93A mice. Type of test: in vivo. To be noted: 10 mg/kg, day 100. An excerpt: Ubiquitinated inclusions accumulate in MNs from sALS and fALS patients, and in ALS mice[51]. We characterized poly-ubiquitinated proteins in lumbar SCs protein extracts by 10% denaturating PAGE. Protein extracts from Neuro2a cells treated with the proteasome inhibitor Bortezomib (BTZ), able to increase poly-ubiquitination, were used as an experimental control[52] (Fig. 7a). […] We next scored ubiquitin MFI levels in ventral horn MNs of G93A mice. […] (Fig. 7c and d). We next scored the Golgi apparatus in G93A mice by labeling lumbar sections for the cis-Golgi matrix protein GM130[54]. […] (Fig. 7e).
Sections from mice or glass covers containing cells were washed three times in PBS 1× (Lonza, 5 min each), and incubated in the following blocking mix: PBS 1×/FBS 10% (Invitrogen), BSA 1 mg/mL (Sigma–Aldrich), TritonX100 0.1% (Sigma Aldrich), for 1 h at room temperature. Antibodies were diluted in blocking mix and incubated at +4 °C overnight according manufacturer’s instructions. The following day, sections were rinsed in PBS and fluorescent secondary antibodies—i.e. never deriving from the species from which the primary antibodies are derived- (Alexafluor conjugated) diluted in blocking mix, were used according to the manufacturer’s instructions. Slides were incubated in Hoechst 33342 (Sigma–Aldrich) for nuclei counterstaining. […]

For the compound `NC(N)=N/N=C/c1cccc(/C=N/N=C(N)N)c1` [compound 2a, phenyl-1,3-bis-guanylhydrazone], the “transcription levels of CRC genes (Vps35, Vps26, Vps29 mRNAs)” value in test [1] was “did not influence”. Besides, the LDH release result in test [2] (Neuro2a transfected with SOD1G93A and Sh56 plasmids) is listed as “high LDH release was observed”; in test [2] (SOD1G93A-transfected Neuro2a, 48 h), “significantly reduced LDH release”. Besides, the “reduction of GM130-covered areas in MNs (Golgi fragmentation)” value in the test on GM130 is given as “substantially reverted”.

The values above are taken from article PMC7395176, “Retromer stabilization results in neuroprotection in a model of Amyotrophic Lateral Sclerosis” (Nature Communications, 2020).
